From ChEMBL document CHEMBL5291721, “A preclinical secondary pharmacology resource illuminates target-adverse drug reaction associations of marketed drugs” (Nat Commun, 2023)

Columns and labels:
[1] = biological target: T1, Prostaglandin G/H synthase 1 (Rattus norvegicus, UniProt Q63921); format: functional
T1 sequence (Q63921 whole entry): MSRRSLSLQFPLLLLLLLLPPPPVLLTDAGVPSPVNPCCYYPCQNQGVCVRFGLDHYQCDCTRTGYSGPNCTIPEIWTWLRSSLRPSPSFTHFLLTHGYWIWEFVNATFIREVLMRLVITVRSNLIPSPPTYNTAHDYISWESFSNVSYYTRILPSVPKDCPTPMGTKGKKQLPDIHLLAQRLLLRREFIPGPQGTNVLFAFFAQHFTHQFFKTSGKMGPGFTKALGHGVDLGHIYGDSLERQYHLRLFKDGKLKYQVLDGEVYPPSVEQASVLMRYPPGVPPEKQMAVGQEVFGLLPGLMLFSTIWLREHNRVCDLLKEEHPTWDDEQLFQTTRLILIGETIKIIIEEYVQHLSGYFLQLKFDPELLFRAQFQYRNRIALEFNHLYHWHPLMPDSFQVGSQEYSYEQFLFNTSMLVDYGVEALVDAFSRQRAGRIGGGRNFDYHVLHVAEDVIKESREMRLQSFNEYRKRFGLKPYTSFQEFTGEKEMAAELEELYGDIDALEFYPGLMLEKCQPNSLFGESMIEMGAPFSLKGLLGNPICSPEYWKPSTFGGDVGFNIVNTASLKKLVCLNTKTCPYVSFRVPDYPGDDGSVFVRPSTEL

[2] = biological target: T2, Alpha-2A adrenergic receptor (Homo sapiens, UniProt P08913)
T2 sequence (P08913 whole entry): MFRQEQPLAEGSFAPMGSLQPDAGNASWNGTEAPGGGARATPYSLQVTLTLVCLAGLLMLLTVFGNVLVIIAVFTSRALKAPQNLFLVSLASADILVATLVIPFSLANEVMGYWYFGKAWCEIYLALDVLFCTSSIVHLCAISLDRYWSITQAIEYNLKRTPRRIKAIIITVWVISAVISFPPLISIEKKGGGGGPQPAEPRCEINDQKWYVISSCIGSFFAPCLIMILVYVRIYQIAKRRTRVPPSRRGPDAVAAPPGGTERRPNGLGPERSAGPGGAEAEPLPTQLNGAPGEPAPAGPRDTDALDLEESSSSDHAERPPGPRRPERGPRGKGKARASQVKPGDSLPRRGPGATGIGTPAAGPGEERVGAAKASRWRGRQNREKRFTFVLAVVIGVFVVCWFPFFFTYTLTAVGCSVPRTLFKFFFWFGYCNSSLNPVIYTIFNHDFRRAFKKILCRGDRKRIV

Cannabinoid receptor 1 = Cannabinoid receptor 1 (Homo sapiens, UniProt P21554); format: functional
[3] = biological target: T3, Muscarinic acetylcholine receptor M4 (Homo sapiens, UniProt P08173)
T3 sequence (P08173 whole entry): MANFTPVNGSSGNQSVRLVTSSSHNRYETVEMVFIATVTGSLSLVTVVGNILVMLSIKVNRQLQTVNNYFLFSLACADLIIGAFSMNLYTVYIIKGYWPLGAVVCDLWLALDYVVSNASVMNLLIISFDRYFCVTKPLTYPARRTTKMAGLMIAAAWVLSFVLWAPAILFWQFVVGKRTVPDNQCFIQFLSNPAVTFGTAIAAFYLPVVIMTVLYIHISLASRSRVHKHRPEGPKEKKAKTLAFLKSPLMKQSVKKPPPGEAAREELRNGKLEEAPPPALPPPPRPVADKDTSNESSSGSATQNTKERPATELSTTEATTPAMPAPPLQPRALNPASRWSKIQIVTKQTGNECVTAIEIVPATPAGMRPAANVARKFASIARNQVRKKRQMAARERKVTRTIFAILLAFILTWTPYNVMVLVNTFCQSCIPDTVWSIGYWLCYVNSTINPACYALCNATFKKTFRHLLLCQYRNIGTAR

[4] = biological target: T4, Muscarinic acetylcholine receptor M5 (Homo sapiens, UniProt P08912)
T4 sequence (P08912 whole entry): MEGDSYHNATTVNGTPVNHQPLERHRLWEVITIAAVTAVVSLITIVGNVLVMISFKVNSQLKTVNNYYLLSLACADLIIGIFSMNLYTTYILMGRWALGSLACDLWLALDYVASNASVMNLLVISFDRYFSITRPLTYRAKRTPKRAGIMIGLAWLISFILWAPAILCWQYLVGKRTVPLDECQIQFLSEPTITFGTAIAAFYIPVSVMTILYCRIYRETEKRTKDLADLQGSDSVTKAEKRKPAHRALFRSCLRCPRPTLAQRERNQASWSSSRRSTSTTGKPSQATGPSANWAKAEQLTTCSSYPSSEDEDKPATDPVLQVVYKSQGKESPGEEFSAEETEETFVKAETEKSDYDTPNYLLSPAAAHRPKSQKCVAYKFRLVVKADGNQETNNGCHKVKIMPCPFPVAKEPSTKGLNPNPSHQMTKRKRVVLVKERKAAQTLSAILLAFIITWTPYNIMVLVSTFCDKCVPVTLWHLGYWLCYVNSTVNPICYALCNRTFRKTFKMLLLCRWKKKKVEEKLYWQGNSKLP

[5] = biological target: T5, Alpha-1A adrenergic receptor (Homo sapiens, UniProt P35348)
T5 sequence (P35348 whole entry): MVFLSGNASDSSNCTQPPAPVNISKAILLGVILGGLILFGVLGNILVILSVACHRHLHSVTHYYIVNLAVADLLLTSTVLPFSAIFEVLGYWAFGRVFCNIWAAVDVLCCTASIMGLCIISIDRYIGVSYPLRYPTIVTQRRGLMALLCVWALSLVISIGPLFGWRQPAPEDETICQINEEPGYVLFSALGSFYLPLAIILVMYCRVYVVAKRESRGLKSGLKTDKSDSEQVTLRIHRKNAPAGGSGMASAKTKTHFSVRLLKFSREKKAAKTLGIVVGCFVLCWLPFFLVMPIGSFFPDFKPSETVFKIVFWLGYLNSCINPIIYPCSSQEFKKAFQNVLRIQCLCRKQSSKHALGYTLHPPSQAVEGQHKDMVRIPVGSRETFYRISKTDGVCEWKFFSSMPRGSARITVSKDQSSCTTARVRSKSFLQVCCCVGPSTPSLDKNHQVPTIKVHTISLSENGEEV

D(1A) dopamine receptor = D(1A) dopamine receptor (Homo sapiens, UniProt P21728)
Also: assay procedure not described here.

Sequence of Cannabinoid receptor 1 (P21554 whole entry): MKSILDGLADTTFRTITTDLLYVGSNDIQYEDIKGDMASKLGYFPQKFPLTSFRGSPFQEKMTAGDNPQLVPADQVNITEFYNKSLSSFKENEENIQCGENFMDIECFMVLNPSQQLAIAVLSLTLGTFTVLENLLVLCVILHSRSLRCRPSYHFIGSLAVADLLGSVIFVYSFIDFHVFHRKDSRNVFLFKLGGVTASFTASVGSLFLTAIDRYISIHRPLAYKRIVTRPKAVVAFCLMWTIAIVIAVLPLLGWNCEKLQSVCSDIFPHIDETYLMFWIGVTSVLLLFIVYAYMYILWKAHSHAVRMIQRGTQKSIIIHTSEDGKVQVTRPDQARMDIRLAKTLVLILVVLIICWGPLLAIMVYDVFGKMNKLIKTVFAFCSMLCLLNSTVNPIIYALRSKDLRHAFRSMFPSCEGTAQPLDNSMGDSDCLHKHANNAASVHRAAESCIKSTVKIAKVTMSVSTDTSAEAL
Sequence of D(1A) dopamine receptor (P21728 whole entry): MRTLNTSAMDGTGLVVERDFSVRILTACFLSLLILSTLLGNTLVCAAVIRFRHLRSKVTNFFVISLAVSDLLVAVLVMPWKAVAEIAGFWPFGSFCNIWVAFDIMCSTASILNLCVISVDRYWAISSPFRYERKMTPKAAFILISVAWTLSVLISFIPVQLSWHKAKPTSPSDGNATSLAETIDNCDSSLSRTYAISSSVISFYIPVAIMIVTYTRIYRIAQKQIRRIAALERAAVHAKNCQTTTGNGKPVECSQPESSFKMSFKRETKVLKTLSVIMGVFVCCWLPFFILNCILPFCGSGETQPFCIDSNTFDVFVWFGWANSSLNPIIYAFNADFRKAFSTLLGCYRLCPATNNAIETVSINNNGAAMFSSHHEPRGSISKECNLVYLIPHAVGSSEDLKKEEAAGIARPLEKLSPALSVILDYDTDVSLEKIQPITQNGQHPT

CC(C)COCC(CN(Cc1ccccc1)c1ccccc1)N1CCCC1 (stereo unspecified) [BEPRIDIL]
AC50 [1]: > 30 µM

Cc1cc(C(C)(C)C)cc(C)c1CC1=NCCN1 [XYLOMETAZOLINE]
AC50 [2]: 0.005 µM

OC1(c2ccc(Cl)cc2)c2ccccc2C2=NCCN21 (stereo unspecified) [MAZINDOL]
AC50 (Cannabinoid receptor 1): > 10 µM
AC50 [3]: > 10 µM
AC50 [4]: > 10 µM

Clc1ccc(C(Cn2ccnc2)OCc2ccsc2Cl)c(Cl)c1 (stereo unspecified) [TIOCONAZOLE]
AC50 [1]: 14 µM

CN1CCN(C2=Nc3ccccc3Oc3ccc(Cl)cc32)CC1 [LOXAPINE]
AC50 (Cannabinoid receptor 1): > 10 µM
AC50 [3]: 3.73 µM
AC50 [4]: 0.671 µM

C[C@H](Cc1cc2c(c(C(N)=O)c1)N(CCCO)CC2)NCCOc1ccccc1OCC(F)(F)F [SILODOSIN]
AC50 [2]: 6.2 µM

C=C1CC[C@H](O)C/C1=C/C=C1\CCC[C@]2(C)[C@@H]([C@H](C)/C=C/[C@H](C)C(C)C)CC[C@@H]12 [ERGOCALCIFEROL]
AC50 [5]: 24.7 µM
AC50 (D(1A) dopamine receptor): > 30 µM

O=[N+]([O-])c1ccc(O)c2ncccc12 [NITROXOLINE]
AC50 [5]: > 30 µM
AC50 (D(1A) dopamine receptor): > 30 µM

CC(N)C(O)c1ccccc1 (stereo unspecified) [PHENYLPROPANOLAMINE]
AC50 (Cannabinoid receptor 1): > 10 µM
AC50 [4]: > 10 µM
